From patent publication US20250215029A1 (Recludix Pharma, Inc., priority 2022, published 2025) come the findings set out here.

pIC50: −log10 of the molar value. Like-named read-outs stand apart in the source and are kept apart here.

Experiment [1] has as its target T1, Recombinant STAT3 protein (STAT3 (G127-I722)) (Homo sapiens, UniProt P40763).
T1 construct: Recombinant STAT3 protein (STAT3 (G127-I722))
The experiment in a line: STAT3 Fluorescence Polarization (FP) Assay. In kind it is binding. As to conditions: probe 5-FAM-GpYLPQTV-NH2 2 nM, 45-minute incubation. A digest of the protocol:
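Compounds in serial dilution receive a premix of STAT3 (G127-I722, 25 nM) and fluorescent phosphotyrosine peptide 5-FAM-GpYLPQTV-NH2 (2 nM) at pH 7.4. After 45 min at room temperature, FP is measured and IC50 derived by nonlinear regression.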
(In general: In fluorescence polarisation assays a small probe gives low polarisation when free and higher when bound to something large.)

For experiment [2], the target named is T2, Recombinant STAT6 protein (STAT6 (W123-T658)) (Homo sapiens, UniProt P42226).
T2 construct: Recombinant STAT6 protein (STAT6 (W123-T658))
T2 sequence (P42226 123-658): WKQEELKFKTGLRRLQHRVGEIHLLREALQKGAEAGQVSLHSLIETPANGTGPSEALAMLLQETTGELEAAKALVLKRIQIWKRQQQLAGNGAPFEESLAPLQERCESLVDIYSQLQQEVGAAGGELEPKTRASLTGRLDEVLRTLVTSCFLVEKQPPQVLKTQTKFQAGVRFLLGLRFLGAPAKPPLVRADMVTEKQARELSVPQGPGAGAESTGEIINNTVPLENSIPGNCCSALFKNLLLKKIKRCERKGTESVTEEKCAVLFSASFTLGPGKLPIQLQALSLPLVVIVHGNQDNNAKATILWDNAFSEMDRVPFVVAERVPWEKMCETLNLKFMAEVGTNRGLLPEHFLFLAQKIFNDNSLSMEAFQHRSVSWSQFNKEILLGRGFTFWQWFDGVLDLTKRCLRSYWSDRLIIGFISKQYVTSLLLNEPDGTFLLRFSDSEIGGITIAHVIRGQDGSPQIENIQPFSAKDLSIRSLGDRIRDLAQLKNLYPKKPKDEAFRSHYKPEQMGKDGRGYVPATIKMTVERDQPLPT
The experiment in a line: STAT6 Fluorescence Polarization (FP) Assay. The experiment is classed as binding. As to conditions: 45-minute incubation. An outline of the steps: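 Serially diluted compounds received a premix of STAT6 (W123-T658, 250 nM) and 5-FAM peptide probe (2 nM) in pH 7.4 HEPES buffer containing DTT and Tween 20. Following 45 min at room temperature, FP was recorded. IC50s were fitted by nonlinear regression; values are binned A (≤300 nM), B (>300-3000 nM), C (>3-30 μM), D (>30 μM).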

Where [3] appears, read: STAT3 (G127-I722) 25 nM, read-out: STAT3 (FP assay IC50 class).
Where [4] appears, read: STAT6 (W123-T658) 250 nM, probe 5-FAM-Ap[…]-NH2 2 nM, read-out: STAT6 (FP assay IC50 class).
The mark [5] stands for this setting: STAT3 25 nM, read-out: STAT3 (FP assay IC50).
The mark [6] stands for this setting: STAT6 250 nM, probe 5-FAM-Ap[…]-NH2 2 nM, read-out: STAT6 (FP assay IC50).
Where [7] appears, read: STAT6 (W123-T658) 250 nM, probe 5-FAM-ApYKPFQDLI-NH2 2 nM, read-out: STAT6 (FP assay IC50 class).

T1 sequence (P40763 127-722): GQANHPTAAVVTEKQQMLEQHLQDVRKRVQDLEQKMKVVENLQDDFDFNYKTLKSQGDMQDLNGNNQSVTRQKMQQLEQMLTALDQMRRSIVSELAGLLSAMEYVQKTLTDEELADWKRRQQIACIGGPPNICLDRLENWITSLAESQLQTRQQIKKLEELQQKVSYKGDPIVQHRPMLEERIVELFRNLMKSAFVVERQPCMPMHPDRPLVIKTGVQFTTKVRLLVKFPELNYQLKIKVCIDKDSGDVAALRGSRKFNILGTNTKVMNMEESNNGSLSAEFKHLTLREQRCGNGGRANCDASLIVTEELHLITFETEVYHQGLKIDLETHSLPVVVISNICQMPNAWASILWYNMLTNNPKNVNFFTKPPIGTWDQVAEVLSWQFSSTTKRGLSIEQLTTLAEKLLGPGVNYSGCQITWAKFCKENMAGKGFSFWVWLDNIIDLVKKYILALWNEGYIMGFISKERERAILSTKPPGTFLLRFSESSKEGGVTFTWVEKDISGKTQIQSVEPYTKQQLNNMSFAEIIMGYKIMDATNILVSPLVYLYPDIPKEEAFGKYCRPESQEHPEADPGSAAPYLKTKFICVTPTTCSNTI

For `N#C[C@H]1[C@H](c2ccccc2)CN(C(=O)[C@@H]2CC[C@@H]3C[C@@H](N4CCC4)CC[C@H](NC(=O)c4cc5cc([C@@H](F)P(=O)(O)O)ccc5s4)C(=O)N32)C12CC2` (single isomer, unassigned) [Compound 937], the pIC50 in experiment [1] (setting [3]) was 5.00 to 6.00; in experiment [2] (setting [4]), at least 6.52.
As for `C[C@H]1C[C@H]2CC[C@@H](C(=O)N3CC[C@@H](c4ccccc4)C3)N2C(=O)[C@@H](NC(=O)c2cc3cc(C(F)(F)P(=O)(O)O)ccc3s2)CC1O` (stereo in doubt) [Compound 101, (difluoro(2-(((3S,6S,8S,9S, 10aR)-8-hydroxy-9-methyl-5-oxo-3-((S)-3-phenylpyrrolidine-1-carbonyl)decahydropyrrolo [1,2-a]azocin-6-yl)carbamoyl)benzo[b]thiophen-5-yl)methyl) phosphonic acid], the pIC50 is 6.00 to 7.00 in experiment [1] (setting [5]) and 5.52 to 6.52 in experiment [2] (setting [6]).
Turning to `N#CC1C(c2ccccc2)CN(C(=O)[C@@H]2CC[C@@H]3CCC[C@H](NC(=O)c4cc5cc(C(F)(F)P(=O)(O)O)ccc5s4)C(=O)N32)C12CC2` (stereo in doubt) [Compound 865, ((2-(((3S,6S,9aS)-3-((6S,7R)-7-cyano-6-phenyl-4-azaspiro[2.4]heptane-4-carbonyl)-5-oxooctahydro-1H-pyrrolo[1,2-a]azepin-6-yl)carbamoyl)benzo [b]thiophen-5-yl)difluoromethyl) phosphonic acid], the pIC50 in experiment [1] (setting [3]) was 5.00 to 6.00; in experiment [2] (setting [4]), at least 6.52.
On to `O=C(N[C@H]1CCCC[C@H]2CC[C@@H](C(=O)N3CC(c4cccnc4)CC34CC4)N2C1=O)c1cc2cc([C@@H](F)P(=O)(O)O)ccc2s1` (stereo in doubt) [Compound 910, ((S)-fluoro(2-(((3S,6S,10aS)-5-oxo-3-((R)-6-(pyridin-3-yl)-4-azaspiro[2.4]heptane-4-carbonyl)decahydropyrrolo[1,2-a]azocin-6-yl)carbamoyl)benzo [b]thiophen-5-yl)methyl) phosphonic acid], for which the pIC50 was 5.00 to 6.00 in experiment [1] (setting [3]) and at least 6.52 in experiment [2] (setting [7]).
For `N#CC1C(c2ccccc2)CN(C(=O)[C@@H]2CC[C@@H]3CCC[C@H](NC(=O)c4cc5cc([C@@H](F)P(=O)(O)O)ccc5s4)C(=O)N32)C12CC2` (stereo in doubt) [Compound 921, ((S)-(2-(((3S,6S,9aS)-3-((6R,7S)-7-cyano-6-phenyl-4-azaspiro[2.4]heptane-4-carbonyl)-5-oxooctahydro-1H-pyrrolo[1,2-a]azepin-6-yl)carbamoyl)benzo [b]thiophen-5-yl)fluoromethyl) phosphonic acid] the same measures were 5.00 to 6.00 and at least 6.52.
In the case of `CN(C(=O)[C@@H]1CC[C@@H]2CCCC[C@H](NC(=O)c3cc4cc(C(F)(F)P(=O)(O)O)ccc4[nH]3)C(=O)N21)c1ccccc1` [Compound 1, (difluoro(2-(((3S,6S,10aS)-3-(methyl(phenyl)carbamoyl)-5-oxodecahydropyrrolo[1,2-a]azocin-6-yl)carbamoyl)-1H-indol-5-yl)methyl)phosphonic acid], the results for the pIC50 in experiment [1] (setting [5]) and in experiment [2] (setting [6]) were under 5.00 and 5.52 to 6.52, respectively.
For `O=C(N[C@H]1CC[C@@H](O)C[C@H]2CC[C@@H](C(=O)N3CC(C(=O)N4CCOCC4)C3)N2C1=O)c1cc2cc(C(F)(F)P(=O)(O)O)ccc2s1` [Compound 2, (difluoro(2-(((3S,6S,9R,10aR)-9-hydroxy-3-(3-(morpholine-4-carbonyl)azetidine-1-carbonyl)-5-oxodecahydropyrrolo [1,2-a]azocin-6-yl)carbamoyl)benzo[b]thiophen-5-yl)methyl) phosphonic acid] the same measures were 6.00 to 7.00 and 4.52 to 5.52.
In the same order, the values of `O=C(N[C@H]1C[C@H](O)CC[C@H]2CC[C@@H](C(=O)N3CC(C(=O)N4CCOCC4)C3)N2C1=O)c1cc2cc(C(F)(F)P(=O)(O)O)ccc2s1` [Compound 3, (difluoro(2-(((3S,6S,8R, 10aR)-8-hydroxy-3-(3-(morpholine-4-carbonyl)azetidine-1-carbonyl)-5-oxodeca-hydropyrrolo[1,2-a]azocin-6-yl)carbamoyl)benzo[b]thiophen-5-yl)methyl)phosphonic acid] are 6.00 to 7.00 and 4.52 to 5.52.
Regarding `O=C(N[C@H]1C[C@@H](O)CC[C@H]2CC[C@@H](C(=O)N3CC(C(=O)N4CCOCC4)C3)N2C1=O)c1cc2cc(C(F)(F)P(=O)(O)O)ccc2s1` [Compound 4, (difluoro(2-(((3S,6S,8S,10aR)-8-hydroxy-3-(3-(morpholine-4-carbonyl)azetidine-1-carbonyl)-5-oxodecahydropyrrolo [1,2-a]azocin-6-yl)carbamoyl)benzo[b]thiophen-5-yl)methyl) phosphonic acid], the pIC50 was 6.00 to 7.00 in experiment [1] (setting [5]) and 4.52 to 5.52 in experiment [2] (setting [6]).
In the same order, the values of `O=C(N[C@H]1CC[C@H](O)C[C@H]2CC[C@@H](C(=O)N3CC(C(=O)N4CCOCC4)C3)N2C1=O)c1cc2cc(C(F)(F)P(=O)(O)O)ccc2s1` [Compound 5, (difluoro(2-(((3S,6S,9S,10aR)-9-hydroxy-3-(3-(morpholine-4-carbonyl)azetidine-1-carbonyl)-5-oxodecahydropyrrolo [1,2-a]azocin-6-yl)carbamoyl)benzo[b]thiophen-5-yl)methyl)phosphonic acid] are 6.00 to 7.00 and 4.52 to 5.52.
In the same order, the values of `O=C(N[C@H]1CC[C@@H](OCc2ccccc2)C[C@H]2CC[C@@H](C(=O)N3CC(C(=O)N4CCOCC4)C3)N2C1=O)c1cc2cc(C(F)(F)P(=O)(O)O)ccc2s1` [Compound 6, ((2-(((3S,6S,9R,10aR)-9-(benzyloxy)-3-(3-(morpholine-4-carbonyl)azetidine-1-carbonyl)-5-oxodecahydropyrrolo [1,2-a]azocin-6-yl)carbamoyl)benzo[b]thiophen-5-yl)difluoromethyl) phosphonic acid] are 6.00 to 7.00 and 4.52 to 5.52.
With `O=C(N[C@H]1C[C@H](OCc2ccccc2)CC[C@H]2CC[C@@H](C(=O)N3CC(C(=O)N4CCOCC4)C3)N2C1=O)c1cc2cc(C(F)(F)P(=O)(O)O)ccc2s1` [Compound 7, ((2-(((3S,6S,8R, 10aR)-8-(benzyloxy)-3-(3-(morpholine-4-carbonyl)azetidine-1-carbonyl)-5-oxodecahydropyrrolo [1,2-a]azocin-6-yl)carbamoyl)benzo[b]thiophen-5-yl)difluoromethyl) phosphonic acid], the pIC50 was 6.00 to 7.00 in experiment [1] (setting [5]) and 4.52 to 5.52 in experiment [2] (setting [6]).
Turning to `O=C(N[C@H]1C[C@@H](OCc2ccccc2)CC[C@H]2CC[C@@H](C(=O)N3CC(C(=O)N4CCOCC4)C3)N2C1=O)c1cc2cc(C(F)(F)P(=O)(O)O)ccc2s1` [Compound 8, ((2-(((3S,6S,8S,10aR)-8-(benzyloxy)-3-(3-(morpholine-4-carbonyl)azetidine-1-carbonyl)-5-oxodecahydropyrrolo [1,2-a]azocin-6-yl)carbamoyl)benzo [b]thiophen-5-yl)difluoromethyl) phosphonic acid], the values for the pIC50 in experiment [1] (setting [5]) and in experiment [2] (setting [6]) were 6.00 to 7.00 and 4.52 to 5.52, respectively.
In the same order, the values of `CCO[C@@H]1CC[C@H](NC(=O)c2cc3cc(C(F)(F)P(=O)(O)O)ccc3s2)C(=O)N2[C@H](CC[C@H]2C(=O)N2CC(C(=O)N3CCOCC3)C2)C1` [Compound 9, ((2-(((3S,6S,9R,10aR)-9-ethoxy-3-(3-(morpholine-4-carbonyl)azetidine-1-carbonyl)-5-oxodecahydropyrrolo [1,2-a]azocin-6-yl)carbamoyl)benzo[b]thiophen-5-yl)difluoromethyl) phosphonic acid] are 6.00 to 7.00 and 4.52 to 5.52.
On to `CCO[C@H]1CC[C@H]2CC[C@@H](C(=O)N3CC(C(=O)N4CCOCC4)C3)N2C(=O)[C@@H](NC(=O)c2cc3cc(C(F)(F)P(=O)(O)O)ccc3s2)C1` [Compound 10, ((2-(((3S,6S,8S,10aR)-8-ethoxy-3-(3-(morpholine-4-carbonyl)azetidine-1-carbonyl)-5-oxodecahydropyrrolo [1,2-a]azocin-6-yl)carbamoyl)benzo[b]thiophen-5-yl)difluoromethyl) phosphonic acid], for which the pIC50 is 6.00 to 7.00 in experiment [1] (setting [5]) and 4.52 to 5.52 in experiment [2] (setting [6]).

For orientation: pIC50 means −log10 of the IC50, conventionally taken in molar units.
